Patent publication US5491172A, “N-acyl sulfamic acid esters (or thioesters), N-acyl sulfonamides, and N-sulfonyl carbamic acid esters (or thioesters) as hypercholesterolemic agents” (Warner-Lambert Company, priority 1994, dated 1996)
Structures can show the parent of a compound that is named as a salt.

What was measured:
[1] = in vivo screen APCC: blood cholesterol in rats fed overnight a high fat, high cholesterol (PCC) diet; details: male Sprague-Dawley rats, dosed at 4 PM, PCC diet with 0.5% cholic acid overnight, blood sampled 8 AM, dose not given
From the text: In one in vivo screen designated APCC, male Sprague-Dawley rats (200 to 225 g) were randomly divided into treatment groups and dosed at 4 PM with either vehicle (CMC/Tween) or suspensions of compounds in vehicle. The normal chow diet was then replaced with a high fat, high cholesterol diet (designated PCC) containing 0.5% cholic acid. The rats consumed this diet ad libitum during the night and were sacrificed at 8 AM to obtain blood samples for cholesterol analysis using standard procedures. Statistical differences between mean cholesterol values for the same vehicle were determined using analysis of variance followed by Fisher's least significant test.

[2] = target: acyl-CoA:cholesterol acyltransferase (ACAT); experiment: in vitro ACAT inhibition (LAI): radiolabeled cholesterol oleate formed from radiolabeled oleic acid in rat liver microsomes; assay type: biochemical; details: concentration required to inhibit enzyme activity by 50%
Procedure: The ability of representative compounds of the present invention to inhibit ACAT was measured using an in vitro test more fully described in Field FJ, Salone RG, Biochemica et Biophysica, 1982;712:557-570. The test assesses the ability of a test compound to inhibit the acylation of cholesterol by oleic acid by measuring the amount of radiolabeled cholesterol oleate formed from radiolabeled oleic acid in a tissue preparation containing rat liver microsomes.

Row | SMILES | % Change (mg/dl) in cholesterol [1] [%] | IC50 [2] [µM] | % Change (mg/dl) in cholesterol ([1]; sodium salt) [%] | IC50 ([2]; sodium salt) [µM]
1 | CC(C)c1cccc(C(C)C)c1OS(=O)(=O)NC(=O)C(C)c1ccccc1 (centres unmarked) [Example 24, sulfamic acid(1-oxo-2-phenylpropyl)-2,6-bis(1-methylethyl)phenyl ester] | -24 | 26 | – | –
2 | CC(C)c1cc(C(C)C)c(CC(=O)NS(=O)(=O)Oc2c(C(C)C)cc(C(C)C)cc2C(C)C)c(C(C)C)c1 [Example 8, sulfamic acid[[2,4,6-tris(1-methylethyl)phenyl]acetyl]-2,4,6-tris(1-methylethyl)phenyl ester] | -66 | 21 | – | –
3 | CCC(C)C(C(=O)NS(=O)(=O)Oc1c(C(C)C)cccc1C(C)C)c1ccccc1 (centres unmarked) [Example 31, sulfamic acid(3-methyl-1-oxo-2-phenylpentyl)-2,6-bis(1-methylethyl)phenyl ester] | -30 | 3.3 | – | –
4 | CC(C)c1cc(C(C)C)c(OS(=O)(=O)NC(=O)Cc2c(C(C)C)cccc2C(C)C)c(C(C)C)c1 [Example 3, sulfamic acid[[2,6-bis(1-methylethyl)phenyl]acetyl]-2,4,6-tris(1-methylethyl)phenylester] | -79 | 11 | – | –
5 | CC(C)c1cccc(C(C)C)c1OS(=O)(=O)NC(=O)C1CCc2ccccc2C1 (centres unmarked) [Example 29, sulfamic acid[(1,2,3,4-tetrahydro-2-naphthyl)carbonyl]-2,6-bis(1-methylethyl)phenylester] | -9 | 15 | – | –
6 | CC(C)c1cccc(C(C)C)c1OS(=O)(=O)NC(=O)C(=O)c1ccccc1 [Example 22, sulfamic acid(oxophenylacetyl)-2,6-bis(1-methylethyl)phenyl ester] | -23 | 50 | – | –
7 | CC(C)c1cccc(C(C)C)c1OS(=O)(=O)NC(=O)[C@@H]1C[C@H]1c1ccccc1 (relative stereo) [Example 15, sulfamic acid trans-[(2-phenylcyclopropyl)carbonyl]-2,6-bis(1-methylethyl)phenyl ester] | -14 | – | – | –
8 | CC(C)c1cccc(C(C)C)c1OS(=O)(=O)NC(=O)Cc1c(Cl)cccc1Cl [Example 14, sulfamic acid[2,6-dichlorophenyl(acetyl)]-2,6-bis(1-methylethyl)phenyl ester] | -12 | 33 | – | –
9 | Cc1cc(C)c(CC(=O)NS(=O)(=O)Oc2c(C(C)C)cccc2C(C)C)c(C)c1 [Example 18, sulfamic acid[2,4,6-trimethylphenyl(acetyl)]-2,6-bis(1-methylethyl)phenyl ester] | -47 | 22 | – | –
10 | CC(C)c1cccc(C(C)C)c1OS(=O)(=O)NC(=O)C(c1ccc(Cl)cc1)c1ccc(Cl)cc1 [Example 35, sulfamic acid[bis-(4-chlorophenyl)acetyl]-2,6-bis(1-methylethyl)phenyl ester] | -9 | 8.9 | – | –
11 | CCC(C)C(C(=O)NS(=O)(=O)Oc1c(C(C)C)cccc1C(C)C)c1ccccc1 (centres unmarked) [Example 45, sulfamic acid(3-methyl-1-oxo-2-phenylpentyl)-2,6-bis(1-methylethyl)phenyl ester sodium salt] | – | – | -63 | 5.6
12 | CC(C)c1cccc(C(C)C)c1OS(=O)(=O)NC(=O)C(c1ccccc1)C1CCCCC1 (centres unmarked) [Example 33, sulfamic acid(cyclohexylphenylacetyl)-2,6-bis(1-methylethyl)phenyl ester] | -63 | 9.3 | – | –
13 | CC(C)c1cccc(C(C)C)c1OS(=O)(=O)NC(=O)C(C)(c1ccccc1)c1ccccc1 [Example 34, sulfamic acid(1-oxo-2,2-diphenylpropyl)-2,6-bis(1-methylethyl)phenyl ester] | -67 | 7.7 | – | –
14 | CC(C)c1cccc(C(C)C)c1OS(=O)(=O)NC(=O)Cc1ccccc1 [Example 7, sulfamic acid(phenylacetyl)-2,6-bis(1-methylethyl)phenyl ester] | -17 | 47 | – | –
15 | CCCCCCCCCC(=O)NS(=O)(=O)Oc1c(C(C)C)cccc1C(C)C [Example 10, sulfamic acid (decanoyl)-2,6-bis(1-methylethyl)phenyl ester] | -26 | – | – | –
16 | CC(C)c1cc(C(C)C)c(C=CC(=O)NS(=O)(=O)Oc2c(C(C)C)cccc2C(C)C)c(C(C)C)c1 [Example 40, sulfamic acid[1-oxo-3-[2,4,6-tris-(1-methylethyl)phenyl]-2-propenyl]-2,6-bis-(1-methylethyl)phenyl ester] | -54 | 32 | – | –
17 | CC(C)c1cccc(C(C)C)c1OS(=O)(=O)NC(=O)C(c1ccccc1)c1ccccc1 [Example 27, sulfamic acid(diphenylacetyl)-2,6-bis(1-methylethyl)phenyl ester] | -72 | 12 | – | –
18 | CC(C)c1cc(C(C)C)c(C(F)C(=O)NS(=O)(=O)Oc2c(C(C)C)cccc2C(C)C)c(C(C)C)c1 (centres unmarked) [Example 44, sulfamic acid[fluoro[2,4,6-tris(1-methylethyl)phenyl]acetyl]-2,6-bis(1-methylethyl)phenyl ester] | -74 | 9.4 | – | –
19 | CC(C)c1cccc(C(C)C)c1CC(=O)NS(=O)(=O)Oc1c(C(C)C)cccc1C(C)C [Example 1, sulfamic acid[[2,6-bis(1-methylethyl)phenyl]acetyl]-2,6-bis(1-methylethyl)phenyl ester] | -63 | 9.7 | – | –
20 | CCCCCCCCCCCC(=O)NS(=O)(=O)Oc1c(C(C)C)cccc1C(C)C [Example 11, sulfamic acid(dodecanoyl)-2,6-bis(1-methylethyl)phenyl ester] | -8 | > 10 | – | –
21 | CC(C)c1cc(C(C)C)c(OCC(=O)NS(=O)(=O)Oc2c(C(C)C)cccc2C(C)C)c(C(C)C)c1 [Example 46, sulfamic acid[[2,4,6-tris(1-methylethyl)phenoxy]acetyl]-2,6-bis(1-methylethyl)phenyl ester] | -57 | 34 | – | –
22 | CC(C)c1cccc(C(C)C)c1OS(=O)(=O)NC(=O)C12CC3CC(CC(C3)C1)C2 [Example 12] | -5 | – | – | –
23 | CC(C)c1cccc(C(C)C)c1OS(=O)(=O)NC(=O)CC(c1ccccc1)c1ccccc1 [Example 13, sulfamic acid(1-oxo-3,3-diphenylpropyl)-2,6-bis(1-methylethyl)phenyl ester] | -31 | 25 | – | –
24 | CC(C)c1cccc(C(C)C)c1OS(=O)(=O)NC(=O)CCc1ccccc1 [Example 38, sulfamic acid(1-oxo-3-phenylpropyl)-2,6-bis(1-methylethyl)phenyl ester] | -16 | 31 | – | –
25 | CC(C)c1cc(C(C)C)c(C(O)C(=O)NS(=O)(=O)Oc2c(C(C)C)cccc2C(C)C)c(C(C)C)c1 (centres unmarked) [Example 43, sulfamic acid[hydroxy[2,4,6-tris(1-methylethyl)phenyl]acetyl]-2,6-bis(1-methylethyl)phenyl ester] | -45 | 31 | – | –
26 | CC(=O)OC(C(=O)NS(=O)(=O)Oc1c(C(C)C)cccc1C(C)C)c1c(C(C)C)cc(C(C)C)cc1C(C)C (centres unmarked) [Example 42, sulfamic acid[(acetyloxy)[2,4,6-tris(1-methylethyl)phenyl]acetyl]-2,6-bis(1-methylethyl)phenyl ester] | -25 | 7 | – | –
27 | CC(C)c1cc(C(C)C)c(CC(=O)NS(=O)(=O)Oc2c(C(C)C)cccc2C(C)C)c(C(C)C)c1 [Example 6, sulfamic acid[[2,4,6-tris(1-methylethyl)phenyl]acetyl]-2,6-bis(1-methylethyl)phenylester sodium salt] | – | – | -75 | –
28 | CC(C)c1cccc(C(C)C)c1OS(=O)(=O)NC(=O)C(c1ccccc1)(c1ccccc1)c1ccccc1 [Example 28, sulfamic acid(triphenylacetyl)-2,6-bis(1-methylethyl)phenyl ester] | -30 | 6 | – | –
29 | CC(C)c1cccc(C(C)C)c1OCC(=O)NS(=O)(=O)Oc1c(C(C)C)cccc1C(C)C [Example 47, sulfamic acid[[2,6-bis(1-methylethyl)phenoxy]acetyl]-2,6-bis(1-methylethyl)phenyl ester] | -46 | 38 | – | –
30 | COc1cc(OC)c(CC(=O)NS(=O)(=O)Oc2c(C(C)C)cccc2C(C)C)c(OC)c1 [Example 17, sulfamic acid[2,4,6-trimethoxyphenyl(acetyl)]-2,6-bis(1-methylethyl)phenyl ester] | -40 | > 50 | – | –
